From patent US20240150356A1, “Pyrimidine amide compounds and use thereof” (ALPHALA CO., LTD., priority 2019, published 2024)
Like-named read-outs stand apart in the source and are kept apart here.

Assays:
Format in all cases: cell-based
[1] = tested on: SW480 (colon adenocarcinoma cell line); assay: In vitro MTS cell viability assay (NCI-60 methodology), SW480; conditions: Homo sapiens, SW480 cells, read-out: SW480 LC50
Method in brief: (§1)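 NCI-60 style: compound added 24 h post-plating at five 2-fold dilutions plus DMSO control, then 2 days' incubation, MTS read-out. Time-zero plate gives Tz; LC50 is the concentration where [(Ti−Tz)/Tz]×100=−50.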

[2] = tested on: NCI-H460 (human lung cancer cell line); assay: In vitro MTS cell viability assay (NCI-60 methodology), NCI-H460; conditions: NCI-H460 cells, read-out: NCI-H460 LC50
Method in brief: as §1

[3] = tested on: Hep3B cells (hepatocellular carcinoma cell line); assay: In vitro MTS cell viability assay (NCI-60 methodology), Hep3B; conditions: Homo sapiens, 48 h, 2 days drug incubation, 50% reduction vs time zero, read-out: Hep3B LC50
Method in brief: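 Hep3B cells given five 2-fold dilutions of compound for 2 days, with viability by MTS measured at time zero and at end. LC50 is the concentration giving a 50% fall in viable cells relative to the start of treatment, per NCI-60 formula.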

SMILES	CC50 [1] [nM]	CC50 [2] [nM]	LC50 ([3]; Table 6, MTS) [nM]	LC50 ([3]; Table 1, MTS) [nM]	LC50 ([3]; Table 10, MTS) [nM]	LC50 ([3]; Table 5, MTS) [nM]
COC(=O)[C@@H]1CCCN1c1nc(NC(=O)c2ccc([N+](=O)[O-])s2)c2cnn(-c3ccc(C(C)(C)C)cc3)c2n1 [Compound 6-69, methyl(1-(4-(tert-butyl)phenyl)4-(5-nitrothiophene-2-carboxamido)-1H-pyrazolo[3,4-d]pyrimidin-6-yl)-L-prolinate]	890	2760	440	–	–	–
O=C(Nc1nc(N2CCC[C@H]2COc2ccccc2)nc2c1cnn2-c1ccc(F)cc1)c1ccc([N+](=O)[O-])s1 [Compound 6-106, (S)—N-(1-(4-fluorophenyl)-6-(2-(phenoxymethyl)pyrrolidin-1-yl)-1H-pyrazolo[3,4-d]pyrimidin-4-yl)-5-nitrothiophene-2-carboxamide]	500	1650	430	–	–	–
CC(C)(C)c1ccc(-n2ncc3c(NC(=O)c4ccc([N+](=O)[O-])s4)nc(N4CCC(F)(F)C4)nc32)cc1 [Compound 6-66, N-(1-(4-(tert-butyl)phenyl)-6-(3,3-difluoropyrrolidin-1-yl)-1H-pyrazolo[3,4,d]pyrimidin-4-yl)-5-nitrothiophene-2-carboxamide]	> 10000	410	130	–	–	–
CC(C)n1ncc2c(NC(=O)c3ccc([N+](=O)[O-])s3)nc(-c3ccc(OC(F)(F)F)cc3)nc21 [Compound 1-22, N-(1-isopropyl-6-(4-(trifluoromethoxy)phenyl)-1H-pyrazolo[3,4-d]pyrimidin-4-yl)-5-nitrothiophene-2-carboxamide]	5380	2180	–	730	–	–
CN(C)CCOc1nc(NC(=O)c2ccc([N+](=O)[O-])s2)c2cnn(-c3ccc(C(C)(C)C)cc3)c2n1 [Compound 6-58, N-(1-(4-(tert-butyl)phenyl)-6-(2-(dimethylamino)ethoxy)-1H-pyrazolo[3,4-d]pyrimidin-4-yl)-5-nitrothiophene-2-carboxamide]	4090	3970	690	–	–	–
CCCOc1ccc(-c2nc(NC(=O)c3ccc([N+](=O)[O-])s3)c3cnn(-c4ccc(F)cc4)c3n2)cn1 [Compound 6-133, N-(1-(4-fluorophenyl)-6-(6-propoxypyridin-3-yl)-1H-pyrazolo[3,4-d]pyrimidin-4-yl)-5-nitrothiophene-2-carboxamide]	430	490	160	–	–	–
COc1ccc(-c2nc(NC(=O)c3ccc([N+](=O)[O-])s3)c3cnn(-c4ccc(F)cc4)c3n2)cn1 [Compound 6-121, N-(1-(4-fluorophenyl)-6-(6-methoxypyridin-3-yl)-1H-pyrazolo[3,4-d]pyrimidin-4-yl)-5-nitrothiophene-2-carboxamide]	630	480	70	–	–	–
O=C(Nc1nc(-c2cccnc2)nc2c1cnn2-c1ccc(F)cc1)c1ccc([N+](=O)[O-])s1 [Compound 6-111, N-(1-(4-fluorophenyl)-6-(pyridin-3-yl)-1H-pyrazolo[3,4-d]pyrimidin-4-yl)-5-nitrothiophene-2-carboxamide]	> 4000	1870	90	–	–	–
O=C(Nc1nc(-c2ccc(F)cc2)nc2c1cnn2-c1cccc(Cl)c1)c1ccc([N+](=O)[O-])s1 [Compound 6-35, N-(1-(3-chlorophenyl)-6-(4-fluorophenyl)-1H-pyrazolo[3,4-d]pyrimidin-4-yl)-5-nitrothiophene-2-carboxamide]	520	500	110	–	–	–
O=C(Nc1nc(-c2ccc3c(c2)OCO3)nc2c1cnn2-c1cccc(Cl)c1)c1ccc([N+](=O)[O-])s1 [Compound 6-39, N-(6-(benzo[d][1,3]dioxol-5-yl)-1-(3-chlorophenyl)-1H-pyrazolo[3,4-d]pyrimidin-4-yl)-5-nitrothiophene-2-carboxamide]	3180	1070	270	–	–	–
CC(C)(C)c1ccc(-n2ncc3c(NC(=O)c4ccc([N+](=O)[O-])s4)nc(-n4cccn4)nc32)cc1 [Compound 6-75, N-(1-(4-tert-butyl)phenyl)-6-(4-(1H-pyrazol-1-yl)-1H-pyrazolo[3,4-d]pyrimidin-4-yl)-5-nitrothiophene-2-carboxamide]	5480	1280	240	–	–	–
CCOCCOCCOc1ccc(-c2nc(NC(=O)c3ccc([N+](=O)[O-])s3)c3cnn(-c4ccc(OC)cc4)c3n2)cn1 [Compound 6-28, N-(6-(6-(2-(2-ethoxyethoxy)ethoxy)pyridin-3-yl)-1-(4-methoxyphenyl)-1H-pyrazolo[3,4-d]pyrimidin-4-yl)-5-nitrothiophene-2-carboxamide]	3440	680	190	–	–	–
O=C(Nc1nc(N2CCC(F)(F)C2)nc2c1cnn2-c1ccc(OC(F)(F)F)cc1)c1ccc([N+](=O)[O-])s1 [Compound 6-85, N-(6-(3,3-difluoropyrrolidin-1-yl)-1-(4-(trifluoromethoxy)phenyl)-1H-pyrazolo[3,4-d]pyrimidin-4-yl)-5-nitrothiophene-2-carboxamide]	680	560	200	–	–	–
Cc1ccc(-c2nc(NC(=O)c3ccc([N+](=O)[O-])s3)c3cnn(-c4ccc(F)cc4)c3n2)cn1 [Compound 6-120, N-(1-(4-fluorophenyl)-6-(6-methylpyridin-3-yl)-1H-pyrazolo[3,4-d]pyrimidin-4-yl)-5-nitrothiophene-2-carboxamide]	510	1340	250	–	–	–
O=C(Nc1nc(-c2ccc(F)nc2)nc2c1cnn2C1CCC(F)(F)CC1)c1ccc([N+](=O)[O-])s1 [Compound 10-55, N-(1-(4,4-difluorocyclohexyl)-6-(6-fluoropyridin-3-yl)-1H-pyrazolo[3,4-d]pyrimidin-4-yl)-5-nitrothiophene-2-carboxamide]	1060	940	–	–	710	–
O=C(Nc1nc(-c2ccc(N3CCCCC3)nc2)nc2c1cnn2-c1ccccc1)c1ccc([N+](=O)[O-])s1 [Compound 5-42, 5-nitro-N-(1-phenyl-6-(6-(piperidin-1-yl)pyridin-3-yl)-1H-pyrazolo[3,4-d]pyrimidin-4-yl)thiophene-2-carboxamide]	890	1670	–	–	–	510
Cc1ccc(-n2ncc3c(NC(=O)c4ccc([N+](=O)[O-])s4)nc(-c4ccc(F)cc4F)nc32)cc1 [Compound 6-11]	670	330	280	–	–	–
O=C(Nc1nc(-c2ccc(Cl)cc2)nc2c1cnn2-c1ccccc1)c1ccc([N+](=O)[O-])s1 [Compound 5-30, N-(6-(4-chlorophenyl)-1-phenyl-1H-pyrazolo[3,4-d]pyrimidin-4-yl)-5-nitrothiophene-2-carboxamide]	2690	540	–	–	–	350
O=C(Nc1nc(-c2cncnc2)nc2c1cnn2-c1ccc(F)cc1)c1ccc([N+](=O)[O-])s1 [Compound 6-112, N-(1-(4-fluorophenyl)-6-(pyrimidin-5-yl)-1H-pyrazolo[3,4-d]pyrimidin-4-yl)-5-nitrothiophene-2-carboxamide]	810	970	220	–	–	–
